Each structure is given as a SMILES string. pIC50: −log10 of the molar value.

The source of these data is ChEMBL document CHEMBL5252617, “Design, synthesis and biological evaluation of novel N-(methyl-d3) pyridazine-3-carboxamide derivatives as TYK2 inhibitors” (Bioorg Med Chem Lett, 2023).

For data set [1], the target named is T1, Non-receptor tyrosine-protein kinase TYK2 (Homo sapiens, UniProt P29597). Briefly: Binding affinity to TYK2 JH2 domain (unknown origin) assessed as melting temperature at 10 uM by thermal shift assay. Conditions: tested as the 2H-labelled form.
T1 sequence (P29597 whole entry, the tested form may be a part): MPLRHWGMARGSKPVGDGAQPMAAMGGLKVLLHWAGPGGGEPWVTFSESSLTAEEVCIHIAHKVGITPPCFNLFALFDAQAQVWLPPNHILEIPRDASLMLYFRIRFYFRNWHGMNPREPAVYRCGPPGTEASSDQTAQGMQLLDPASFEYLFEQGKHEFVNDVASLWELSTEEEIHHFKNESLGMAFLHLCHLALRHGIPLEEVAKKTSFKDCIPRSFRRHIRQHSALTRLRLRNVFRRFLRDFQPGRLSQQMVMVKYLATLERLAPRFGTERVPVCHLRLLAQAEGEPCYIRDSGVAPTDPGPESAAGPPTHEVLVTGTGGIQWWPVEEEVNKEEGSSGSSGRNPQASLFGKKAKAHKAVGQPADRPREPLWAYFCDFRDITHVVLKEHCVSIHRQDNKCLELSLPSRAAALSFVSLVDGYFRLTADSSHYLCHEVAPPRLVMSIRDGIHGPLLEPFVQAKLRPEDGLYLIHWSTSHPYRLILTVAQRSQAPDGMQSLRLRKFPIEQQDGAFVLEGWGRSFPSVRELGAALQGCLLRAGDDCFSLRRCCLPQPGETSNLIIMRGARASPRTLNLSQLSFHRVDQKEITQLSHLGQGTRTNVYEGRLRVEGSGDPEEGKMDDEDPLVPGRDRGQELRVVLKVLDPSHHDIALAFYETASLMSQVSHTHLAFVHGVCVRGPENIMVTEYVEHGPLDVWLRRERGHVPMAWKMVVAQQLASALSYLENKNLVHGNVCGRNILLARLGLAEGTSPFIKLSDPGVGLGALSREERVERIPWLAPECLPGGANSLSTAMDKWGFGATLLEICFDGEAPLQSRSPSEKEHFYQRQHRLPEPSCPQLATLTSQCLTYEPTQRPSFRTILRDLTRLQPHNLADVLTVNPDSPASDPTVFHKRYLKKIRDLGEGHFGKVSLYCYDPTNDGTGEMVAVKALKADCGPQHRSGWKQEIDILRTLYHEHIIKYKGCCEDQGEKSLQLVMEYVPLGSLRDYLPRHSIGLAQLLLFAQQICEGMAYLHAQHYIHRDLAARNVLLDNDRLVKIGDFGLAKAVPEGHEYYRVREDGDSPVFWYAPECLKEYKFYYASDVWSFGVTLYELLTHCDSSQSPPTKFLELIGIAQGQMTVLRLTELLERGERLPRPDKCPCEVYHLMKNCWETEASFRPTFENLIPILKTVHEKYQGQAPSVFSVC
In data set [2] the target is T1, Non-receptor tyrosine-protein kinase TYK2. Briefly: Binding affinity to TYK2 JH2 domain (unknown origin) assessed as melting temperature at 1 uM by thermal shift assay. The following applies: tested as the 2H-labelled form.
Data set [3] is described as follows: Stability in mouse liver microsomes assessed as parent compound remaining measured after 60 mins. The following applies: read-out: Stability. In kind it is ADME, Microsome. Background: Liver microsomes are a subcellular fraction often used to study metabolism.
The nature of data set [4]: Stability in human liver microsomes assessed as parent compound remaining measured after 60 mins. In kind it is ADME, Microsome. Conditions: read-out: Stability.
In data set [5] the target is T1, Non-receptor tyrosine-protein kinase TYK2. Briefly: Inhibition of TYK2 dependent IFNalpha-stimulated STAT3 phosphorylation in human Jurkat cells. In kind it is cell-based.

What is called Tm is the temperature at which the thermal transition is half complete. For the molecule `CCn1cnc(-c2ccc(NC(=O)c3cccc(Nc4cc(NC(=O)C5CC5)nnc4C(=O)NC)c3OC)cc2)n1`, the melting temperature (Tm) was determined as 58.2 °C in data set [1] and 54.9 °C in data set [2].

`CNC(=O)c1nnc(NC(=O)C2CC2)cc1Nc1cccc(C(=O)Nc2ccc(-c3cccc(=O)[nH]3)cc2)c1OC`: the Tm in data set [1] came to 56.5 °C; in data set [2] it was 52.5 °C.

Turning to `CNC(=O)c1nnc(NC(=O)C2CC2)cc1Nc1cccc(C(=O)Nc2ccc(N3CCCCC3=O)c(Cl)c2)c1OC`, the Tm was 65.5 °C in data set [1] and 60.4 °C in data set [2].

The term pIC50 denotes the negative decadic logarithm of the IC50, by convention in mol/L. High values mean a small IC50, low ones a large IC50. Turning to `[2H]C([2H])([2H])NC(=O)c1nnc(NC(=O)C2CC2)cc1Nc1cccc(C(=O)Nc2ccc(-n3cccn3)cc2)c1OC`, the values for the remaining at 1 h in data set [3] and in data set [4] were 54.9% and 78.5%, respectively. In addition, the pIC50 in data set [5] was 8.19.

Consider `[2H]C([2H])([2H])NC(=O)c1nnc(NC(=O)C2CC2)cc1Nc1cccc(C(=O)Nc2ccc(N3CCCCC3=O)c(Cl)c2)c1OC`, for which the results for the remaining at 1 h in data set [3] and in data set [4] were 4.53% and 0.06%, respectively. Also, the pIC50 in data set [5] was 8.51.

On to `CNC(=O)c1nnc(NC(=O)C2CC2)cc1Nc1cccc(C(=O)Nc2ccc(N3CCCCC3=O)cc2F)c1OC`, for which the values for the Tm in data set [1] and in data set [2] were 60.8 °C and 56.2 °C, respectively.

For `[2H]C([2H])([2H])NC(=O)c1nnc(NC(=O)C2CC2)cc1Nc1cccc(C(=O)Nc2ccc(-c3ccc(F)c(=O)[nH]3)cc2)c1OC`, the values for the remaining at 1 h in data set [3] and in data set [4] were 58.2% and 81.8%, respectively. The molecule further showed a pIC50 in data set [5] of 7.89.

On to `[2H]C([2H])([2H])NC(=O)c1nnc(NC(=O)C2CC2)cc1Nc1cccc(C(=O)Nc2ccc(N3CCCCC3=O)cc2F)c1OC`, for which the remaining at 1 h worked out at 36.6% in data set [3] and 37.8% in data set [4]. For the same molecule, in data set [5], the pIC50 is 8.24.

As for `[2H]C([2H])([2H])NC(=O)c1nnc(Nc2ccccn2)cc1Nc1cccc(C(=O)Nc2ccc(N3CCCCC3=O)cc2)c1OC`, the remaining at 1 h in data set [3] stood at 23%; in data set [4] it was 44.5%. This molecule showed a pIC50 in data set [5] of 9.09.

As to `[2H]C([2H])([2H])NC(=O)c1nnc(NC(=O)C2CC2)cc1Nc1cccc(C(=O)Nc2ccc(N3CCCCC3)cc2)c1OC`, the remaining at 1 h amounted to 9% in data set [3] and 1.91% in data set [4]. Moreover, in data set [5], the pIC50 was 7.92.

For `CNC(=O)c1nnc(NC(=O)C2CC2)cc1Nc1cccc(C(=O)Nc2ccc(N3CCCCC3)cc2)c1OC`, the Tm was determined as 63.4 °C in data set [1] and 58.2 °C in data set [2].

Turning to `CNC(=O)c1nnc(NC(=O)C2CC2)cc1Nc1cccc(C(=O)Nc2ccc(NC(=O)C3CCCC3)cc2)c1OC`, the results for the Tm in data set [1] and in data set [2] were 56.2 °C and 52.7 °C, respectively.

For `[2H]C([2H])([2H])NC(=O)c1nnc(NC(=O)C2CC2)cc1Nc1cccc(C(=O)Nc2ccc(-n3ccnc3)cc2)c1OC`, in data set [5], the pIC50 was 7.29.

With `CNC(=O)c1nnc(NC(=O)C2CC2)cc1Nc1cccc(C(=O)Nc2ccc(-n3cccn3)cc2)c1OC`, the Tm amounted to 61.1 °C in data set [1] and 56.2 °C in data set [2].

For `[2H]C([2H])([2H])NC(=O)c1nnc(NC(=O)C2CC2)cc1Nc1cccc(C(=O)Nc2ccc(-n3ccccc3=O)cc2)c1OC`, the remaining at 1 h worked out at 71.3% in data set [3] and 75.8% in data set [4]. This molecule also gave a pIC50 in data set [5] of 8.49.

Regarding `[2H]C([2H])([2H])NC(=O)c1nnc(NC(=O)C2CC2)cc1Nc1cccc(C(=O)Nc2ccc(NC(=O)C3CCCC3)cc2)c1OC`, the pIC50 in data set [5] is 8.00.

As to `CNC(=O)c1nnc(NC(=O)C2CC2)cc1Nc1cccc(C(=O)Nc2ccc(N3CCCC3=O)cc2)c1OC`, the figures for the Tm in data set [1] and in data set [2] were 61.9 °C and 56.5 °C, respectively.

`CNC(=O)c1nnc(NC(=O)C2CC2)cc1Nc1cccc(C(=O)Nc2ccc(-c3ccc(F)c(=O)[nH]3)cc2)c1OC`: the values for the Tm in data set [1] and in data set [2] were 60.1 °C and 55.9 °C, respectively.

In the case of `CNC(=O)c1nnc(NC(=O)C2CC2)cc1Nc1cccc(C(=O)Nc2ccc(-n3ccccc3=O)cc2)c1OC`, the midpoint of thermal melting (Tm) in data set [1] was found to be 62.2 °C; in data set [2] it was 56 °C.

With `[2H]C([2H])([2H])NC(=O)c1nnc(NC(=O)C2CC2)cc1Nc1cccc(C(=O)Nc2ccc(N3CCCC3=O)cc2)c1OC`, the remaining at 1 h in data set [3] was 55.1%; in data set [4], 86.9%. This molecule also showed a pIC50 in data set [5] of 8.08.

In turn, `[2H]C([2H])([2H])NC(=O)c1nnc(NC(=O)C2CC2)cc1Nc1cccc(C(=O)Nc2ccc(-c3ncn(CC)n3)cc2)c1OC` gave a pIC50 in data set [5] of 7.37.

`CNC(=O)c1nnc(NC(=O)C2CC2)cc1Nc1cccc(C(=O)Nc2cccc(-n3ccccc3=O)c2)c1OC`: the Tm in data set [1] is 57.6 °C; in data set [2] it was 52.9 °C.

`CNC(=O)c1nnc(NC(=O)C2CC2)cc1Nc1cccc(C(=O)Nc2ccc(-c3cccnc3)cc2)c1OC`: the Tm in data set [1] is 55.5 °C; in data set [2], 54.1 °C.

For the molecule `CNC(=O)c1nnc(NC(=O)C2CC2)cc1Nc1cccc(C(=O)Nc2ccc(N3CCCCC3=O)cc2)c1OC`, the Tm in data set [1] came to 66.6 °C; in data set [2], 60.6 °C.

On to `CNC(=O)c1nnc(Nc2ccc(F)cn2)cc1Nc1cccc(C(=O)Nc2ccc(N3CCCCC3=O)cc2)c1OC`, for which the Tm in data set [1] was determined as 68.8 °C; in data set [2], 66 °C.

Turning to `[2H]C([2H])([2H])NC(=O)c1nnc(NC(=O)C2CC2)cc1Nc1cccc(C(=O)Nc2ccc(N3CCCCS3(=O)=O)cc2)c1OC`, the remaining at 1 h turned out to be 18.2% in data set [3] and 3.26% in data set [4]. The molecule further had a pIC50 in data set [5] of 8.72.

Take `[2H]C([2H])([2H])NC(=O)c1nnc(NC(=O)C2CC2)cc1Nc1cccc(C(=O)Nc2ccc(N3CCCCC3=O)cc2)c1OC`: the remaining at 1 h in data set [3] is 53.9%; in data set [4] it was 50.6%. In data set [5], this molecule had a pIC50 of 8.85.

As for `CNC(=O)c1nnc(Nc2ccccn2)cc1Nc1cccc(C(=O)Nc2ccc(N3CCCCC3=O)cc2)c1OC`, the Tm in data set [1] was determined as 66.5 °C; in data set [2], 64 °C.

As to `[2H]C([2H])([2H])NC(=O)c1nnc(NC(=O)C2CC2)cc1Nc1cccc(C(=O)Nc2ccc(-c3ncn(C)n3)cc2)c1OC`, the pIC50 in data set [5] is 7.85.

In the case of `CNC(=O)c1nnc(NC(=O)C2CC2)cc1Nc1cccc(C(=O)Nc2ccc(N3CCCCS3(=O)=O)cc2)c1OC`, the Tm is 64.8 °C in data set [1] and 58.7 °C in data set [2].

Turning to `[2H]C([2H])([2H])NC(=O)c1nnc(NC(=O)C2CC2)cc1Nc1cccc(C(=O)Nc2cccc(-n3ccccc3=O)c2)c1OC`, the pIC50 in data set [5] was 7.96.

Take `CNC(=O)c1nnc(NC(=O)C2CC2)cc1Nc1cccc(C(=O)Nc2ccc(C3CCCNC3=O)cc2)c1OC` (configuration not stated): the values for the Tm in data set [1] and in data set [2] were 70.2 °C and 60.1 °C, respectively.

In data set [5], `[2H]C([2H])([2H])NC(=O)c1nnc(NC(=O)C2CC2)cc1Nc1cccc(C(=O)Nc2ccc(-c3cccc(=O)[nH]3)cc2)c1OC` had a pIC50 of 7.26.

In the case of `CNC(=O)c1nnc(NC(=O)C2CC2)cc1Nc1cccc(C(=O)Nc2ccc(-c3ncn(C)n3)cc2)c1OC`, the Tm in data set [1] came to 57 °C; in data set [2], 53.8 °C.

As for `CNC(=O)c1nnc(NC(=O)C2CC2)cc1Nc1cccc(C(=O)Nc2ccc(N3CCCCCC3=O)cc2)c1OC`, the melting temperature (Tm) in data set [1] amounted to 64.8 °C; in data set [2], 59.6 °C.

Take `[2H]C([2H])([2H])NC(=O)c1nnc(NC(=O)C2CC2)cc1Nc1cccc(C(=O)Nc2ccc(-c3cccnc3)cc2)c1OC`: the pIC50 in data set [5] was 7.62.

Turning to `CNC(=O)c1nnc(NC(=O)C2CC2)cc1Nc1cccc(C(=O)Nc2ccc(-n3ccnc3)cc2)c1OC`, the Tm turned out to be 54 °C in data set [1] and 52.2 °C in data set [2].
